This note sets out measurements from ChEMBL document CHEMBL1938371, “Discovery of AZD2932, a new Quinazoline Ether Inhibitor with high affinity for VEGFR-2 and PDGFR tyrosine kinases” (Bioorg Med Chem Lett, 2012).

The target in data set [1] is Platelet-derived growth factor receptor alpha (Homo sapiens) (UniProt P16234). The data set is described as follows: Inhibition of PDGFRalpha phosphorylation by cell based assay.
Data set [2] deals with T1, Receptor-type tyrosine-protein kinase FLT3 (Homo sapiens, UniProt P36888).
T1 sequence (P36888 whole entry): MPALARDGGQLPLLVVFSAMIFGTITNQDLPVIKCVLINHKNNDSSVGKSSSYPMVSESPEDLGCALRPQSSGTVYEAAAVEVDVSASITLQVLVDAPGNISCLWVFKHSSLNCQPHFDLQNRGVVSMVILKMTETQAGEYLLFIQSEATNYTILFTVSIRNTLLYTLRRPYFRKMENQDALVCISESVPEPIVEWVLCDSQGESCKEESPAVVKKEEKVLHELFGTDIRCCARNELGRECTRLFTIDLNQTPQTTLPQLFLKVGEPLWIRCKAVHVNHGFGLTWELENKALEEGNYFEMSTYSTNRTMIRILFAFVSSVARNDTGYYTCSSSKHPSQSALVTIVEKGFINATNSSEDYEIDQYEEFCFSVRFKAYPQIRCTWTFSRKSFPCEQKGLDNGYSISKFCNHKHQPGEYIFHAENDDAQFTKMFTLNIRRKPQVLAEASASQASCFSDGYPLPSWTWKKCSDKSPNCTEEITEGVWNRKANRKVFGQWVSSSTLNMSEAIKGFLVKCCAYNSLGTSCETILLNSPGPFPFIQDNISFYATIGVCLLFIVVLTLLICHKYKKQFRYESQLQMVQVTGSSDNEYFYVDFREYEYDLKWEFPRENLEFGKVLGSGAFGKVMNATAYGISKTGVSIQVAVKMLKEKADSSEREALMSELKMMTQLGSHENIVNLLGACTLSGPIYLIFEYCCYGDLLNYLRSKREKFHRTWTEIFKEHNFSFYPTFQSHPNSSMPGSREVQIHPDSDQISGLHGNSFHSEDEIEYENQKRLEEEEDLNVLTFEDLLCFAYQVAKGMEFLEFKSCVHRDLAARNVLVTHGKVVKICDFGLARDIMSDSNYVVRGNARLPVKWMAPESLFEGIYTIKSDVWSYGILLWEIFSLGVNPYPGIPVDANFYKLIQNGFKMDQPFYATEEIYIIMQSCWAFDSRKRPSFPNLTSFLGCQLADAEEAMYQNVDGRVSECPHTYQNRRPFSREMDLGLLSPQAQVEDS
The data set is described as follows: Inhibition of FLT3 phosphorylation by cell based assay.

The target of data set [3] is Platelet-derived growth factor receptor beta (Homo sapiens, UniProt P09619). The data set is described as follows: Inhibition of PDGFRbeta phosphorylation by cell based assay.
Chain of Platelet-derived growth factor receptor beta (P09619 whole entry): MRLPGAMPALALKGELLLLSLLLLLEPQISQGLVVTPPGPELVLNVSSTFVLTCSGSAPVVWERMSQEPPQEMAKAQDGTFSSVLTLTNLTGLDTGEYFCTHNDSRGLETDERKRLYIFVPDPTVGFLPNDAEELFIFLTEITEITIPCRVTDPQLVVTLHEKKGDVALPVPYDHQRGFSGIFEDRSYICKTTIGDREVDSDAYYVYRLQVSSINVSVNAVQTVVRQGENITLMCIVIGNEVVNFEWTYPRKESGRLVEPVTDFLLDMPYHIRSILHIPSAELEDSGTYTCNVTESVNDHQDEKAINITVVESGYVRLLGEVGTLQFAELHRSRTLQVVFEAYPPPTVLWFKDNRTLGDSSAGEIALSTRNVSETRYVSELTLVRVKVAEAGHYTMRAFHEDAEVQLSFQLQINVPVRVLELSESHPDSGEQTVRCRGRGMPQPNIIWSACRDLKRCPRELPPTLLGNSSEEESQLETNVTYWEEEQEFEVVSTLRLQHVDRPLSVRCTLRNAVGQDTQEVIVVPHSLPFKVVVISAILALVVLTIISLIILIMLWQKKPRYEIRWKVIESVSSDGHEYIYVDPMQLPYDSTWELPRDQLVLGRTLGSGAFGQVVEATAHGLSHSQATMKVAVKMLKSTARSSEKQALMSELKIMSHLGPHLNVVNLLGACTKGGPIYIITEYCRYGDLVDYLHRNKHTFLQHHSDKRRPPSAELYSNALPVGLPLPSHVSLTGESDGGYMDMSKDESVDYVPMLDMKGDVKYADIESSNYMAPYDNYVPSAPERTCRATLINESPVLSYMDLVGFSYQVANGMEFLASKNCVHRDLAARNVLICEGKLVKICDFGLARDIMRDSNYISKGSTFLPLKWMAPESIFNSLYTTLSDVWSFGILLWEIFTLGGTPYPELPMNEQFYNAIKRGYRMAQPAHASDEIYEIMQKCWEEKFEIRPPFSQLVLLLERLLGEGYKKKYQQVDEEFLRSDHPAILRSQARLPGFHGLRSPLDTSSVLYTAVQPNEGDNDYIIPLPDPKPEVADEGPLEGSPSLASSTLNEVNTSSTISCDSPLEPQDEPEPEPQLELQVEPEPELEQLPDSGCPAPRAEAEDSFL
In data set [4] the target is Vascular endothelial growth factor receptor 2 (Homo sapiens) (UniProt P35968). Put plainly: Inhibition of VEGFR2 phosphorylation by cell based assay.
Data set [5] is described as follows: Chemical stability of the compound at pH 1. Type of data set: physicochemical. As to conditions: buffer.
A further data set deals with Aurora kinase B (Homo sapiens, UniProt Q96GD4). Put plainly: Inhibition of aurora-B.
Chain of Aurora kinase B (Q96GD4 whole entry): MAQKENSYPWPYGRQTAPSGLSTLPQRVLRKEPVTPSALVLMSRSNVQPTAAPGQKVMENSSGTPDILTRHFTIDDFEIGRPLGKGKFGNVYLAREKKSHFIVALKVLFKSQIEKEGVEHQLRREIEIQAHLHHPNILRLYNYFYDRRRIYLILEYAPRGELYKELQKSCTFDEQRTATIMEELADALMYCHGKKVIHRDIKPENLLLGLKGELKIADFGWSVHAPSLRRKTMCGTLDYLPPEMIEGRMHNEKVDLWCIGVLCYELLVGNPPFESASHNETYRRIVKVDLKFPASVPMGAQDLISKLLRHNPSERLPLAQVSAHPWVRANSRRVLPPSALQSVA
A short description of data set [6]: Oral bioavailability in rat. Type of data set: ADME, organism-based. The note with it: in vivo.
The target of data set [7] is Macrophage colony-stimulating factor 1 receptor (Homo sapiens, UniProt P07333). Put plainly: Inhibition of CSF1R phosphorylation by cell based assay.
Chain of Macrophage colony-stimulating factor 1 receptor (P07333 whole entry): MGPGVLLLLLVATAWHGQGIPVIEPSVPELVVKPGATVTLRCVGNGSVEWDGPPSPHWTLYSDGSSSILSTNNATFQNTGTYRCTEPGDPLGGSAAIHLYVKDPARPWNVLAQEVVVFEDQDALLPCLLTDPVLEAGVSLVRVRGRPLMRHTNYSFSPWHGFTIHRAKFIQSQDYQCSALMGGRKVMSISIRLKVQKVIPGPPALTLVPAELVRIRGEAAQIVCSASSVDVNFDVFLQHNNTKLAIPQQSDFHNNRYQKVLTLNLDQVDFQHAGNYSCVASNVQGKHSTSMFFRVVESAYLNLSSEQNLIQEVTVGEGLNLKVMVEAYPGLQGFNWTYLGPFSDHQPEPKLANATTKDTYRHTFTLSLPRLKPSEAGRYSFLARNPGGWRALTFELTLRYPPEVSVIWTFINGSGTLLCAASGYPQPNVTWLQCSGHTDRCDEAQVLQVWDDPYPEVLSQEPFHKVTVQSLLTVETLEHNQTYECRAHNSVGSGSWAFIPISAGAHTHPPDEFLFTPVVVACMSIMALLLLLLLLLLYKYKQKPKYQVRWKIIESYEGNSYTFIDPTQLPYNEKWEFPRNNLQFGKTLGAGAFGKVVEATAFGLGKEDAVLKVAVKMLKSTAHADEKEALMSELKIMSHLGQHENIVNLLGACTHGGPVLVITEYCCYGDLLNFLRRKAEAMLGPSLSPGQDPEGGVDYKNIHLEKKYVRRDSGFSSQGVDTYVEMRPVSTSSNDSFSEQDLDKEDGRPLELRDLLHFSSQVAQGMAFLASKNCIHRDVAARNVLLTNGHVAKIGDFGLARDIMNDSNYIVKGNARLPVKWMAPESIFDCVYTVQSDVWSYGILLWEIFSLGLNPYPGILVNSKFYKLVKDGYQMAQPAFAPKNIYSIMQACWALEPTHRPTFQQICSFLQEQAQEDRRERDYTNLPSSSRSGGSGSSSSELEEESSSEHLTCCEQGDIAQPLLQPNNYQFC
For data set [8], the system named is Mus musculus. Put plainly: Inhibition of PDGFRalpha phosphorylation in rat C6 cells xenografted in nude mouse at 3 mg/kg, po. The class given is functional, organism-based. Details: dose 3 mg/kg. As to conditions: TDE = time-dependent effect.
The subject of data set [9] is Mus musculus. The data set is described as follows: Inhibition of PDGFRalpha phosphorylation in rat C6 cells xenografted in po dosed nude mouse after 6 hrs. Type of data set: functional, organism-based.
In data set [10] the target is Mast/stem cell growth factor receptor Kit (Homo sapiens) (UniProt P10721). Put plainly: Inhibition of c-Kit.
Chain of Mast/stem cell growth factor receptor Kit (Homo sapiens) (P10721 whole entry): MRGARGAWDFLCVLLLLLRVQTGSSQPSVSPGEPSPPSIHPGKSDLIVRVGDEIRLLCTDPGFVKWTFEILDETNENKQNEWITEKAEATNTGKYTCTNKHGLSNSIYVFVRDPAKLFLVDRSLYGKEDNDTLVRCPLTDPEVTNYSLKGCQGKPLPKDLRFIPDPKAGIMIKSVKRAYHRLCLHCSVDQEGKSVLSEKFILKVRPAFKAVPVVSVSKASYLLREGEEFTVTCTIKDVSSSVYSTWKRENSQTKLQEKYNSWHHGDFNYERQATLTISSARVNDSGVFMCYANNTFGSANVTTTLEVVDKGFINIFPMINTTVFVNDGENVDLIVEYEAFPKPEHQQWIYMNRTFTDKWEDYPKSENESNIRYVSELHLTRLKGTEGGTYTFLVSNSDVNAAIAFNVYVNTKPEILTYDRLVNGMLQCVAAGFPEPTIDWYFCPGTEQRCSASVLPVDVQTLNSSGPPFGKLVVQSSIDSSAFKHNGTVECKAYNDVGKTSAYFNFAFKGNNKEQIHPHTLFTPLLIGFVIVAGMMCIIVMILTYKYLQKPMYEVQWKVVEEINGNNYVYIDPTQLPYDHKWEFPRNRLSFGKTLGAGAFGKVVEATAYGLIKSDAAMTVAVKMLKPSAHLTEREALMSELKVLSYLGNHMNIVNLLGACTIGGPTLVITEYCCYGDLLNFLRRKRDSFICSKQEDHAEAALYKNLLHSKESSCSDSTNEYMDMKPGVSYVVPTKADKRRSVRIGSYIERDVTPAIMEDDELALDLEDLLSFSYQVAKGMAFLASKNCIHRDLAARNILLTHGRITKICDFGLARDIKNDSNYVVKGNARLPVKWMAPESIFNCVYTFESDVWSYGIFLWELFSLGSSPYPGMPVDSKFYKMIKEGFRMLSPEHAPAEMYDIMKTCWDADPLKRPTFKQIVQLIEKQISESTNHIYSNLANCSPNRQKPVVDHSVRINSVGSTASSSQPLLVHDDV
Data set [11] is described as follows: Clearance in rat. The class given is ADME, organism-based. As to conditions: in vivo.
The nature of data set [12]: Half life in iv dosed rat. As to conditions: in vivo. The class given is ADME, organism-based.

The source made the active and inactive calls. No cut-off for these calls is given here. Where only a bound is given, the exact number is not on record here.

Chain of Platelet-derived growth factor receptor alpha (Homo sapiens) (P16234 whole entry): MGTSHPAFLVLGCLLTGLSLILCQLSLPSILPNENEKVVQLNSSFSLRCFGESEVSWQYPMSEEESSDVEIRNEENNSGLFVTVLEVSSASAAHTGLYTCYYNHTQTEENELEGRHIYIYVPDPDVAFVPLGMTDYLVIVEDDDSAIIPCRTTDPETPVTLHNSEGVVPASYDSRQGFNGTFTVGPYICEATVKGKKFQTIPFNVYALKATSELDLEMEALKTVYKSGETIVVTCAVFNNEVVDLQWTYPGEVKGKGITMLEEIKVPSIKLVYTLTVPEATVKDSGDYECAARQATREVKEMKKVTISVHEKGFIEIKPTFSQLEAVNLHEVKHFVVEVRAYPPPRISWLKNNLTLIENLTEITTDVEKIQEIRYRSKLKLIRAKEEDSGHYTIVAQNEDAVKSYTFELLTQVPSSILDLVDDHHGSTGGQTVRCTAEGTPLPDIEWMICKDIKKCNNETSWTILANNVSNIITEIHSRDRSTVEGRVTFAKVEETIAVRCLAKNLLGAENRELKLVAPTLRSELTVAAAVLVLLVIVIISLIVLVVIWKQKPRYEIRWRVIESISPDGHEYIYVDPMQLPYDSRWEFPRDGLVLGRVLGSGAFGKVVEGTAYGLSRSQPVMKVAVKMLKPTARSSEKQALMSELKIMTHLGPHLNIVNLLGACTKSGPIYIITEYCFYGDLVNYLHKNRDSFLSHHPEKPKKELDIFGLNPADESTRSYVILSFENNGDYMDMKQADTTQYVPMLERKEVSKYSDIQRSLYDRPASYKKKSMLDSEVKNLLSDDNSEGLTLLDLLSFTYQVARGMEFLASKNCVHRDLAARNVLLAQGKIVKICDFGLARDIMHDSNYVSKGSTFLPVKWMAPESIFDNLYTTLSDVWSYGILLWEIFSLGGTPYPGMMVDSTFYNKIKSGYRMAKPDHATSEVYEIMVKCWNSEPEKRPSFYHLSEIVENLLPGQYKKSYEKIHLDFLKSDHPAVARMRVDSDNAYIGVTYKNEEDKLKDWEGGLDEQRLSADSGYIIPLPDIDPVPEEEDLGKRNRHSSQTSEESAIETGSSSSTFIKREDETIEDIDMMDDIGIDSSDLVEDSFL

Turning to `COc1cc2ncnc(Nc3cnn(CC(=O)Nc4ccc(N(C)C)cc4)c3)c2cc1OC`, the inhibition entry in data set [1] was “Active”. Moreover, the IC50 in data set [2] is 4 nM; in data set [3], 6 nM; in data set [4], 101 nM; against Aurora kinase B it was greater than 10 nM; in data set [7] it was 600 nM. The same molecule gave a Stability in data set [5] of 0.1 days. Besides, in data set [6], the bioavailability was less than 20%.
`COc1cc2ncnc(Oc3ccc(CC(=O)Nc4cnn(C(C)C)c4)cc3)c2cc1OC` had an INH in data set [1] of 2 nM. The results for the inhibition entry in the data set with Mus musculus [8] and in the data set on Mus musculus [9] were “tde” and “Dose-dependent effect”, respectively.
Take `COc1cccc(NC(=O)Cn2cc(Nc3ncnc4cc(OC)c(OC)cc34)cn2)c1`: the inhibition entry in data set [1] is “Active”. Also, the IC50 in [2] was greater than 20 nM; in [3], 10 nM; in data set [4], 25 nM; on Aurora kinase B, greater than 10 nM; in data set [7] it was greater than 900 nM. The Stability in data set [5] stood at 0.1 days. This molecule had a bioavailability in [6] of less than 20%.
As for `CCn1cc(NC(=O)Cc2cc(Oc3ccnc4cc(OC)c(OC)cc34)n[nH]2)cn1`, the inhibition result in [10] was “inactive”. Also, the inhibition result in data set [1] was “Active”. The half-inhibitory concentration (IC50) was greater than 1000 nM in [2], greater than 1000 nM in data set [3], greater than 10000 nM in [4] and greater than 1000 nM in data set [7].
Take `COc1cc2ncnc(Nc3cnn(CC(=O)Nc4cccc(F)c4)c3)c2cc1OC`: the inhibition result in data set [1] is “Active”. Further, the IC50 in [2] is 4 nM; in [3], 10 nM; in data set [4], 51 nM; against Aurora kinase B it was less than 0.2 nM; in [7], greater than 1000 nM. In data set [5], the Stability is 0.1 days. This molecule also gave a bioavailability in [6] of less than 20%.
With `COc1cccc(NC(=O)Cn2cc(Oc3ncnc4cc(OC)c(OCCN5CCCCC5)cc34)cn2)c1`, in data set [1], the inhibition result is “Active”. The half-inhibitory concentration (IC50) in [2] amounted to 10 nM; in data set [3] it was 3 nM; in data set [4], 31 nM; in [7], 400 nM. Moreover, the Stability in data set [5] amounted to 0.1 days. In data set [11], this molecule gave a clearance of 75 mL/min/kg. Also, the bioavailability in data set [6] is less than 20%. In data set [12], this molecule showed a half-life of 24 min.
